Counter-ions that a name gives are not always drawn.
Columns and labels:
rat (SD, male) = assay: Spinal nerve ligation model test (von Frey hair test); format: in vivo; settings: L5/L6 spinal nerve ligated rat, oral administration 60 minutes before evaluation
Description: 4. Spinal Nerve Ligation Model Test
Inhibitory action on pain behavior of the compounds as the active ingredients of the pharmaceutical preparations of the present invention was evaluated in accordance with the method described in a reference [Pain, 50: 355-363 (1992)]. Under pentobarbital anesthesia, the lumbar skin and muscle of a rat (SD, male, 5 to 6 weeks of age) were incised and the lumber nerve was exposed by removing the transverse process of lumbar vertebra L 6. The L 5 and L 6 spinal nerves were ligated with a silk thread and then the wound was sutured. The treatment was applied to the left side.
The drug effect evaluation was carried out after 7 to 15 days of the operation. Pain threshold for mechanical stimulus was examined by the von Frey hair (VFH) test.
Individuals having lowered pain threshold were selected in advance by the VFH test on the day before the drug effect evaluation and divided into groups in such a manner that difference in the average threshold value between respective groups becomes small.
The test compounds were orally administered 60 minutes before the drug effect evaluation. […]

human VR1 [1] = target: T1, human VR1 (Homo sapiens, UniProt Q8NER1); assay: Inhibitory activity on capsaicin-induced electric current, whole cell patch clamp, VR1 receptor-expressed HEK 293 cells; format: cell-based; settings: capsaicin 1 μM, voltage-clamped, read-out: IC50 value, inhibition of capsaicin-induced current response
T1 construct: A complete length cDNA coding for human VR1 was obtained; expressed in transfected cells
Description: 2. Measurement of Inhibitory Activity on Capsaicin-Induced Electric Current Using VR1 Stably Expressing Cell
The VR1 receptor-expressed HEK 293 cells prepared in the aforementioned Test Example 1 were inoculated onto a poly-D-lysine-coated cover glass to a density of from 1 to 1.5×10^4 cells/cm^2. This was allowed to stand still in a CO2 incubator (37° C., 5% CO2) and used in this test after a lapse of from 3 to 15 hours.
By recording whole cell patch clamp for the VR1 receptor-expressed HEK 293 cells under a voltage-clamped condition, the current response induced by topically applying capsaicin (1 μM) to the vicinity of the cells was measured. Test compounds were dissolved in an extracellular liquid and applied to a chamber by multi-barrel. Composition (mM) of the extracellular solution was set to NaCl 145, CsCl 5, CaCl2 1, MgCl2 1, HEPES 10 and glucose 10 [pH=7.3]. Composition (mM) of the intracellular solution was set to CsCl 120, MgCl2 2, HEPES 10, BAPTA 10, Na2 GTP 0.2, Mg ATP 4 and phosphorcreatine Na2 4 [pH=7.2]. By defining the current response of capsaicin in the absence of test compound as 100% and continuously applying each test compound starting from a lower concentration, inhibition rate at each concentration was measured. The IC50 value was calculated by nonlinear recursion from respective inhibition rate.

mouse (ddY, male) = assay: Capsaicin test (capsaicin-induced paw-licking behavior); format: in vivo; settings: oral administration 45 minutes before 1.6 μg capsaicin to planta; 5 minutes observation; vehicle group = 100%
Description: Inhibitory action on pain behavior of the compounds as the active ingredients of the pharmaceutical preparations of the present invention was evaluated in accordance with the method described in a reference [Neuropharmacol., 31: 1279-1285 (1992)]. That is, when 1.6 μg of capsaicin is administered to a planta of a mouse (ddY, male, 4 to 5 weeks of age), it induces paw-licking behavior. The pain behavior suppressing action was evaluated by measuring the paw-licking behavior expressing time during 5 minutes after the administration. Each test compound was orally administered 45 minutes before the administration of capsaicin. Evaluation of the test compounds was carried out by calculating each inhibition rate of the test compound administration group when the paw-licking behavior expressing time of the vehicle administration group was regarded as 100%.

human VR1 [2] = target: T1, human VR1; assay: Receptor binding assay ([3H]RTX) using membrane of human VR1 stably expressing HEK 293 cell; settings: [3H]RTX binding, VR1/HEK 293 membrane sample, 37° C. 60 minutes; read-out: VR1 receptor binding inhibitory activity, IC50 value
Description: 1. Receptor Binding Assay Using VR1 Stably Expressing Cell
1) Construction of Human VR1 Stably Expressing Cell
A complete length cDNA coding for human VR1 was obtained by the following method. Firstly, a first strand cDNA was synthesized by carrying out reverse transcription of human brain mRNA using a reverse transcriptase. Next, PCR by Hot Start method was carried out using this first strand cDNA as the template and using Taq DNA polymerase. In the aforementioned PCR, an oligonucleotide consisting of the 424th to 443rd nucleotide sequence of a conventionally known human VR1 cDNA sequence (Genbank AJ277028.1) was used as the sense primer, and an oligonucleotide consisting of a complementary chain sequence of the 3082nd to 3100th nucleotide sequence as the antisense primer, and thermal denaturation was firstly carried out at 98° C. (1 minute) and then a cycle consisting of 98° C. (15 seconds)/63° C. (30 seconds)/72° C. (3 minutes) was repeated 35 times.
Cloning of the thus amplified DNA fragment was carried out using pCR-XL-TOPO vector (TOPO XL PCR Cloning Kit; Invitrogen, USA). The human VR1-cDNA alone was isolated by digesting the resulting plasmid DNA with a restriction enzyme EcoRI and then integrated into pcDNA3.1 (+) plasmid (Invitrogen, USA). In this case, the above genetic engineering operations were carried out by conventionally known methods (Sambrook, J. et al., “Molecular Cloning—A Laboratory Manual”, Cold Spring Harbor Laboratory Press, NY, 2001) and in accordance with the instructions attached to respective reagents.
Next, the resulting pcDNA3.1-VR1 was transferred into HEK 293 cell. By selecting VR1/HEK 293 cells using DMEM medium (Invitrogen, USA) containing 10% FBS, 100 μg/ml streptomycin, 100 U/ml penicillin and 400 μg/ml G 418, a receptor stably expressing cell strain was prepared. The receptor stably expressing cell was sub-cultured in the medium described in the above.
2) Preparation of Membrane Sample
The VR1/HEK 293 cell described in the above was mass-produced in a dish and then, after discarding the medium, scraped out after adding ice-cooled PBS. Centrifugation was carried out at 1000 rpm and at 4° C. for 10 minutes, and the resulting residue was homogenized by adding a homogenization buffer (25 mM Tris-HCl, 220 mM sucrose, pH 7.4) and centrifuged at 2,200 rpm and at 4° C. for 10 minutes. The resulting supernatant was centrifuged at 30,000×g and at 4° C. for 20 minutes and the resulting residue was mixed with 25 mM Tris-HCl, pH 7.4, and centrifuged at 30,000×g and at 4° C. for 20 minutes, and this operation was repeated twice. The resulting residue was suspended in 25 mM Tris-HCl, pH 7.4, and the protein concentration was determined using a protein assay staining solution (Bio-Rad, USA). The thus prepared membrane sample was stored at −80° C.
3) Receptor Binding Assay
This was carried out by modifying the method of [Neurosci., 57: 747-757 (1993)]. As the assay buffer, 25 mM Tris-HCl, 0.025% BSA, pH 7.4 was used. Each test compound, [^3H]RTX 50 μl (about 50,000 dpm; Perkin Elmer Life Science, USA) and the aforementioned membrane sample (protein quantity about 25 μg) were suspended in a microplate to a total volume of 300 μl, incubated at 37° C. for 60 minutes and then incubated on ice for 10 minutes. A 200 μg/50 μl portion of an ice-cooled α1 acid glycoprotein (AGP; Sigma) was added thereto and further incubated for 5 minutes. Completion of the incubation was carried out by rapid filtration of the reaction liquid using a GF/B filter (Perkin Elmer Life Science, USA). After 7 times of washing with ice-cooled 25 mM Tris-HCl buffer (pH 7.4), radioactivity of the filter was measured by a liquid scintillation counter. Regarding the specific binding, a part substituted by 1 μM of RTX among the total binding of [^3H]RTX with the VR1 receptor stably expressing cell membrane fraction was regarded as the specific binding originated from the VR1 receptor. Evaluation of test compounds was carried out in the following manner. […]

T1 sequence (Q8NER1 whole entry): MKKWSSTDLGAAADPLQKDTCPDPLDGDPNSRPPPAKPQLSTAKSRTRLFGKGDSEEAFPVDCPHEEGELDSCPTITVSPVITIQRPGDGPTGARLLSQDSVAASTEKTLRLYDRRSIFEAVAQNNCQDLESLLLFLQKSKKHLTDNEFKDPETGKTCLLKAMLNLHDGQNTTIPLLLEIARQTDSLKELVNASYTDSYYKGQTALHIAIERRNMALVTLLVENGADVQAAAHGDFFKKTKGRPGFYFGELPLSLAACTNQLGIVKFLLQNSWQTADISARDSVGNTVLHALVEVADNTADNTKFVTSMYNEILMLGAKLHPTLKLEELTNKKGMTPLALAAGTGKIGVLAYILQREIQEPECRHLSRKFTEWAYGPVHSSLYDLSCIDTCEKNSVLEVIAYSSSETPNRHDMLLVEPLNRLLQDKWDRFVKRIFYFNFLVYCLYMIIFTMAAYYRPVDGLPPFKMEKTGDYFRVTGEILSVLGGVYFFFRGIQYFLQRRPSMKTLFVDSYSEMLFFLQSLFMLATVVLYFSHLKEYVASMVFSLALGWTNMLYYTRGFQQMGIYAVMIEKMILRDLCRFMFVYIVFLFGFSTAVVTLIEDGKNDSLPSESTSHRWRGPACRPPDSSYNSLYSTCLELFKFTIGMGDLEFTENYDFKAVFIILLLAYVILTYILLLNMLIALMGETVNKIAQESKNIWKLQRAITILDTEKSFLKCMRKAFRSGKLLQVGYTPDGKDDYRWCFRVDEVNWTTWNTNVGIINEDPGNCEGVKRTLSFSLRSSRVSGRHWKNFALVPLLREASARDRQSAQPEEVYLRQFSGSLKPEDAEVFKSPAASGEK

In the case of Cl.O=C1Cc2c(cc(NC(=O)c3ccc(C(F)(F)F)cc3N[C@H]3CCCC[C@@H]3N3CCCC3)cc2C(F)(F)F)N1 [Example 107, N-[2-oxo-4-(trifluoromethyl)-2,3-dihydro-1H-indol-6-yl]-2-{[(1S,2S)-2-pyrrolidin-1-ylcyclohexyl]amino}-4-(trifluoromethyl)benzamide hydrochloride], the “pain threshold for mechanical stimulus of the operation side leg (VFH test)” value (rat (SD, male)) is reported as “completely restored the threshold value of the operation side leg to the threshold value range of the non-operation side leg”, the IC50 (human VR1 [1]) is reported as 8.8 nM and the “inhibition rate of paw-licking behavior expressing time” value (from here on “inhibition rate”) (mouse (ddY, male)) is reported as 53%. For the same compound, the IC50 (human VR1 [2]) was 13 nM.
For CC1(C)C(=O)Nc2cc(NC(=O)c3ccc(C(F)(F)F)cc3N[C@H]3CCCC[C@@H]3N3CCCC3)ccc21 [Example 248], the IC50 (human VR1 [2]) was 31 nM.
With Cc1nc2cc(NC(=O)c3ccc(C(F)(F)F)cc3N[C@H]3CCCC[C@@H]3N(C)C)ccc2s1 [Example 108, 2-{[(1S,2S)-2-(dimethylamino)cyclohexyl]amino}-N-(2-methyl-1,3-benzothiazol-5-yl)-4-(trifluoromethyl)benzamide hydrochloride] the IC50 (human VR1 [2]) was 19 nM.
For CN1C(=O)CCc2ccc(NC(=O)c3ccc(Cl)cc3NC3CCCC3)cc21.Cl [Example 1, 4-chloro-2-(cyclopentylamino)-N-(1-methyl-2-oxo-1,2,3,4-tetrahydroquinolin-7-yl)benzamide hydrochloride], the “inhibition rate” value (mouse (ddY, male)) was 45% and the IC50 (human VR1 [2]) was 12 nM.
With CN1C(=O)CCc2ccc(NC(=O)c3ccc(Cl)cc3NN3CCCCC3)cc21 [Example 119] the IC50 (human VR1 [2]) was 45 nM.
O=C(Nc1ccc2cccnc2c1)c1ccc(C(F)(F)F)cc1N[C@H]1CCCC[C@@H]1N1CCCC1 [Example 386] showed an IC50 (human VR1 [2]) of 18 nM.
With CN1C(=O)CCc2ccc(NC(=O)c3ccc(Cl)cc3N[C@H]3CCCC[C@@H]3N3CCCC3)cc21 [Example 54] the “inhibition rate” value (mouse (ddY, male)) was 34%.
O=C(Nc1ccc2cccnc2c1)c1ccc(C(F)(F)F)cc1N[C@H]1CCCC[C@H]1N1CCCC1 [Example 367] was tested, and the IC50 (human VR1 [2]) was 15 nM.
For COCCNc1cc(C(F)(F)F)ccc1C(=O)Nc1ccc2sc(C)nc2c1 [Example 307], the IC50 (human VR1 [2]) was 9.8 nM.
For CC1Oc2ccc(NC(=O)c3ccc(C(F)(F)F)cc3NC3CCCCC3)cc2NC1=O (stereo not drawn) [Example 73], the “inhibition rate” value (mouse (ddY, male)) was 95%.
With C[C@H]1Oc2ccc(NC(=O)c3ccc(Cl)cc3N[C@@H]3CCCC[C@@H]3N3CCCC3)cc2NC1=O [Example 106, 4-chloro-N-[(2R)-2-methyl-3-oxo-3,4-dihydro-2H-benzoxazin-6-yl]-2-{[(1R,2S)-2-pyrrolidin-1-ylcyclohexyl]amino}benzamide hydrochloride] the IC50 (human VR1 [2]) was 52 nM.
CN1C(=O)CCc2ccc(NC(=O)c3cc(Cl)cnc3NCC3CC3)cc21 [Example 400] gave an IC50 (human VR1 [2]) of 60 nM.
Work on O=C(Nc1ccc2c(c1)N(CCO)C(=O)CC2)c1ccc(C(F)(F)F)cc1NC1CCCCC1 [Example 105, 2-(cyclohexylamino)-N-[1-(2-hydroxyethyl)-2-oxo-1,2,3,4-tetrahydroquinolin-7-yl]-4-(trifluoromethyl)benzamide] yielded an IC50 (human VR1 [2]) of 4.2 nM.
CC(C)CN1CCC(Nc2cc(C(F)(F)F)ccc2C(=O)Nc2ccc3c(c2)NC(=O)C3(C)C)CC1 [Example 327] showed an IC50 (human VR1 [2]) of 3.7 nM.
For Cc1nc2cc(NC(=O)c3ccc(C(F)(F)F)cc3NCc3ccncc3)ccc2s1 [Example 321], the “inhibition rate” value (mouse (ddY, male)) was 67% and the IC50 (human VR1 [2]) was 25 nM.
CCCCN1CCC(Nc2cc(C(F)(F)F)ccc2C(=O)Nc2ccc3c(c2)NC(=O)C3(C)C)CC1 [Example 335] was tested, and the “inhibition rate” value (mouse (ddY, male)) was 49% and the IC50 (human VR1 [2]) was 87 nM.
For CCC(CC)Nc1cc(Cl)ccc1C(=O)Nc1ccc2c(c1)N(C)C(=O)CC2 [Example 17], the “inhibition rate” value (mouse (ddY, male)) was 54% and the IC50 (human VR1 [2]) was 5.8 nM.
Work on CN1C(=O)CCc2ccc(NC(=O)c3ccc(C(F)(F)F)cc3N[C@H]3CCCC[C@@H]3N3CCC(C)(C)C3)cc21 [Example 170] yielded an IC50 (human VR1 [2]) of 2.6 nM.
CN1C(=O)CCc2ccc(NC(=O)c3ccc(C(F)(F)F)cc3NC3(CN4CCCC4)CCCCC3)cc21 [Example 173] was tested, and the IC50 (human VR1 [2]) was 5.6 nM.
With CCCCCN1CC[C@H](Nc2cc(C(F)(F)F)ccc2C(=O)Nc2ccc3c(c2)NC(=O)C3(C)C)C1 [Example 334] the “inhibition rate” value (mouse (ddY, male)) was 58% and the IC50 (human VR1 [2]) was 23 nM.
In the case of CN1C(=O)CCc2ccc(NC(=O)c3ccc(C(F)(F)F)cc3N[C@@H]3CCCC[C@H]3OCc3ccccc3)cc21 [Example 176], the IC50 (human VR1 [2]) is reported as 8.9 nM.
Work on CN1C(=O)CCc2ccc(NC(=O)c3ccc(C(F)(F)F)cc3Nc3cccnc3)cc21 [Example 178] yielded an IC50 (human VR1 [2]) of 62 nM.

Source: US8106190B2, “2-aminobenzamide derivatives” (Astellas Pharma Inc., priority 2005, dated 2012)
